According to patent publication US12052991B2, “Substituted pyridinyloxybenzenes and salts thereof and use thereof as herbicidal agents” (Bayer Aktiengesellschaft, priority 2018, dated 2024):

Assays:
Assay type in all cases: in vivo
[1] = tested on: Veronica persica (VERPE); test: Herbicidal post-emergence action (Table B12); conditions: visual rating about 3 weeks after treatment, 100% = plants have died, 0% = like control plants
Procedure, shortened: (§1)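 Application rates of 1280 or 320 g/ha were tested post-emergence on one-leaf-stage greenhouse plants in sandy loam, using WP or EC formulations with 0.5% additive at 600 L/ha. Activity was rated visually against untreated plants about 3 weeks later.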

[2] = tested on: Veronica persica (VERPE); test: Herbicidal pre-emergence action, test C (Table C12); conditions: visual scoring vs untreated controls
Procedure, shortened: (§2)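 First, weed seeds were sown in sandy loam and covered with soil. Next, aqueous WP/EC preparations plus 0.5% additive were applied to the surface at 600 L/ha (1280 or 320 g/ha). Finally, plants grew in a greenhouse ~3 weeks before visual % scoring against controls.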

[3] = tested on: Amaranthus retroflexus (AMARE); test: Herbicidal pre-emergence action, test C (Table C6); conditions: visual scoring after about 3 weeks, 100% = plants have died, 0% = like control plants
Procedure, shortened: as §2

[4] = tested on: Alopecurus myosuroides (ALOMY); test: Herbicidal pre-emergence action, test C (Table C9); conditions: visual scoring after about 3 weeks, 100% = plants have died, 0% = like control plants
Procedure, shortened: as §2

[5] = tested on: Abutilon theophrasti (ABUTH); test: Herbicidal pre-emergence action, test C (Table C5); conditions: dosage 1280 g/ha; visual scoring after about 3 weeks; 100% = plants have died, 0% = like control plants
Procedure, shortened: as §2

[6] = tested on: Bassia scoparia (KCHSC); test: Herbicidal post-emergence action (Table B11); conditions: visual rating about 3 weeks after treatment, 100% = plants have died, 0% = like control plants
Procedure, shortened: as §1

[7] = tested on: Poa annua (POAAN); test: Herbicidal post-emergence action (Table B3); conditions: rated visually after about 3 weeks, 100% = plants have died, 0% = like control plants
Procedure, shortened: as §1

[8] = tested on: Matricaria inodora (MATIN); test: Herbicidal pre-emergence action, test C (Table C7); conditions: visual scoring after about 3 weeks, 100% = plants have died, 0% = like control plants
Procedure, shortened: as §2

[9] = tested on: Alopecurus myosuroides (ALOMY); test: Herbicidal post-emergence action (Table B9); conditions: rated visually after about 3 weeks, 100% = plants have died, 0% = like control plants
Procedure, shortened: as §1

[10] = tested on: harmful plants ABUTH, AMARE, ECHCG, LOLRI, MATIN, POAAN, SETVI, STEME, ALOMY, DIGSA, KCHSC and VERPE; test: Herbicidal post-emergence action, summary of Tables B1-B12; conditions: application rate of 1280 or 320 g of active ingredient per hectare; summary in words
Procedure, shortened: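 Activity scored by eye roughly 3 weeks post-treatment against untreated plants, from 0% (no effect) to 100% (plants dead). Application rates were 1280 or 320 g/ha, as aqueous WP/EC spray plus 0.5% additive at 600 L/ha, onto one-leaf-stage weeds grown 2–3 weeks in sandy loam.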

[11] = tested on: Abutilon theophrasti (ABUTH); test: Herbicidal post-emergence action (Table B5); conditions: rated visually after about 3 weeks, 100% = plants have died, 0% = like control plants
Procedure, shortened: as §1

[12] = tested on: Amaranthus retroflexus (AMARE); test: Herbicidal post-emergence action (Table B6); conditions: visual rating about 3 weeks after treatment, 100% = plants have died, 0% = like control plants
Procedure, shortened: as §1

[13] = tested on: Digitaria sanguinalis (DIGSA); test: Herbicidal post-emergence action (Table B10); conditions: visual rating about 3 weeks after treatment, 100% = plants have died, 0% = like control plants
Procedure, shortened: as §1

[14] = tested on: Bassia scoparia (KCHSC); test: Herbicidal pre-emergence action, test C (Table C11); conditions: dosage 1280 g/ha, visual scoring vs untreated controls
Procedure, shortened: as §2

[15] = tested on: Stellaria media (STEME); test: Herbicidal pre-emergence action, test C (Table C8); conditions: visual scoring after about 3 weeks, 100% = plants have died, 0% = like control plants
Procedure, shortened: as §2

[16] = tested on: Matricaria inodora (MATIN); test: Herbicidal post-emergence action (Table B7); conditions: rated visually after about 3 weeks, 100% = plants have died, 0% = like control plants
Protocol: Seeds of mono- and dicotyledonous weed plants were placed in plastic pots in sandy loam soil (doubly sown with in each case one species of mono- or dicotyledonous weed plants per pot), covered with soil and cultivated in a greenhouse under controlled growth conditions. 2 to 3 weeks after sowing, the test plants were treated at the one-leaf stage. The compounds of the invention, formulated in the form of wettable powders (WP) or as emulsion concentrates (EC), were applied onto the green parts of the plants as aqueous suspension or emulsion with addition of 0.5% additive at a water application rate of 600 liters per hectare (converted). After the test plants had been kept in the greenhouse under optimum growth conditions for about 3 weeks, the activity of the preparations was rated visually in comparison to untreated controls. For example, 100% activity=the plants have died, 0% activity=like control plants. Tables B1 to B12 below show the effects of selected compounds of the general formula (I) according to Table 1 on various harmful plants and an application rate corresponding to 1280 or 320 g/ha, which were obtained by the experimental procedure mentioned above.

[17] = tested on: Stellaria media (STEME); test: Herbicidal post-emergence action (Table B8); conditions: visual rating about 3 weeks after treatment, 100% = plants have died, 0% = like control plants
Procedure, shortened: as §1

[18] = tested on: harmful plants ABUTH, AMARE, ECHCG, LOLRI, MATIN, POAAN, SETVI, STEME, ALOMY, DIGSA, KCHSC and VERPE; test: Herbicidal pre-emergence action (test C), summary of Tables C1-C12; conditions: application rate of 1280 or 320 g of active ingredient per hectare; summary in words
Procedure, shortened: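 Visual % damage versus untreated plants (0% = like control, 100% = died) was scored after about 3 weeks in the greenhouse. Before emergence, seeds sown in sandy loam got a soil-surface spray of compound as WP or EC plus 0.5% additive, using 600 L/ha water at rates of 1280 or 320 g/ha.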

[19] = tested on: Digitaria sanguinalis (DIGSA); test: Herbicidal pre-emergence action, test C (Table C10); conditions: visual scoring after about 3 weeks, 100% = plants have died, 0% = like control plants
Procedure, shortened: as §2

[20] = tested on: Poa annua (POAAN); test: Herbicidal pre-emergence action, test C (Table C3); conditions: visual scoring after about 3 weeks, 100% = plants have died, 0% = like control plants
Procedure, shortened: as §2

[21] = tested on: Setaria viridis (SETVI); test: Herbicidal pre-emergence action, test C (Table C4); conditions: visual scoring after about 3 weeks, 100% = plants have died, 0% = like control plants
Procedure, shortened: as §2

[22] = tested on: Echinochloa crus-galli (ECHCG); test: Herbicidal post-emergence action (Table B1); conditions: rated visually after about 3 weeks, 100% = plants have died, 0% = like control plants
Procedure, shortened: as §1

[23] = tested on: Echinochloa crus-galli (ECHCG); test: Herbicidal pre-emergence action, test C (Table C1); conditions: dosage 1280 g/ha; visual scoring after about 3 weeks; 100% = plants have died, 0% = like control plants
Procedure, shortened: as §2

[24] = tested on: Lolium rigidum (LOLRI); test: Herbicidal pre-emergence action, test C (Table C2); conditions: visual scoring after about 3 weeks, 100% = plants have died, 0% = like control plants
Procedure, shortened: as §2

[25] = tested on: Setaria viridis (SETVI); test: Herbicidal post-emergence action (Table B4); conditions: 1280 g/ha; rated visually after about 3 weeks; 100% = plants have died, 0% = like control plants
Procedure, shortened: as §1

Compound | Pre-emergence action against Veronica persica (VERPE) ([2]; dosage 1280 g/ha) [%] | Pre-emergence action against Amaranthus retroflexus (AMARE) ([3]; dosage 320 g/ha) [%] | Pre-emergence action against Amaranthus retroflexus (AMARE) ([3]; dosage 1280 g/ha) [%] | Pre-emergence action against Alopecurus myosuroides (ALOMY) ([4]; dosage 1280 g/ha) [%] | Post-emergence action against Bassia scoparia (KCHSC) ([6]; dosage 320 g/ha) [%] | Post-emergence action against Bassia scoparia (KCHSC) ([6]; dosage 1280 g/ha) [%] | Post-emergence action against Poa annua (POAAN) ([7]; 320 g/ha) [%] | Post-emergence action against Poa annua (POAAN) ([7]; 1280 g/ha) [%] | Pre-emergence action against Matricaria inodora (MATIN) ([8]; dosage 320 g/ha) [%] | Pre-emergence action against Matricaria inodora (MATIN) ([8]; dosage 1280 g/ha) [%] | Post-emergence action against Alopecurus myosuroides (ALOMY) ([9]; 1280 g/ha) [%] | herbicidal activity against the harmful plants of Tables B1-B12 in post-emergence treatment [10] | Post-emergence action against Abutilon theophrasti (ABUTH) ([11]; 320 g/ha) [%] | Post-emergence action against Abutilon theophrasti (ABUTH) ([11]; 1280 g/ha) [%] | Post-emergence action against Amaranthus retroflexus (AMARE) ([12]; dosage 320 g/ha) [%] | Post-emergence action against Amaranthus retroflexus (AMARE) ([12]; dosage 1280 g/ha) [%] | Post-emergence action against Digitaria sanguinalis (DIGSA) ([13]; dosage 1280 g/ha) [%] | Pre-emergence action against Stellaria media (STEME) ([15]; dosage 320 g/ha) [%] | Pre-emergence action against Stellaria media (STEME) ([15]; dosage 1280 g/ha) [%] | Post-emergence action against Matricaria inodora (MATIN) ([16]; 1280 g/ha) [%] | other results
Cc1cc(F)c(-c2cc(C(F)F)no2)c(Oc2ncc(Cl)cc2F)c1 [Example 1-89] | 90 | 100 | 100 | 100 | 90 | 100 | 100 | 100 | 90 | 90 | 100 | very good herbicidal activity | 100 | 100 | 100 | 100 | 100 | 90 | 90 | 100 | Post-emergence action against Veronica persica (VERPE) ([1]; dosage 320 g/ha): 100%; Post-emergence action against Veronica persica (VERPE) ([1]; dosage 1280 g/ha): 100%; Pre-emergence action against Abutilon theophrasti (ABUTH) [5]: 90%; Post-emergence action against Alopecurus myosuroides (ALOMY) ([9]; 320 g/ha): 100%; Pre-emergence action against Bassia scoparia (KCHSC) [14]: 90%; Post-emergence action against Matricaria inodora (MATIN) ([16]; 320 g/ha): 100%; Post-emergence action against Stellaria media (STEME) ([17]; dosage 320 g/ha): 100%; Post-emergence action against Stellaria media (STEME) ([17]; dosage 1280 g/ha): 100%; herbicidal activity against the harmful plants of Tables C1-C12 in pre-emergence treatment [18]: very good herbicidal activity; Pre-emergence action against Digitaria sanguinalis (DIGSA) ([19]; dosage 320 g/ha): 90%; Pre-emergence action against Digitaria sanguinalis (DIGSA) ([19]; dosage 1280 g/ha): 100%; Pre-emergence action against Poa annua (POAAN) ([20]; dosage 320 g/ha): 90%; Pre-emergence action against Poa annua (POAAN) ([20]; dosage 1280 g/ha): 100%; Pre-emergence action against Setaria viridis (SETVI) ([21]; dosage 320 g/ha): 100%; Pre-emergence action against Setaria viridis (SETVI) ([21]; dosage 1280 g/ha): 100%
FC(F)c1cc(-c2c(Br)cccc2Oc2ccc(Cl)cn2)on1 [Example 1-53] | 100 | 100 | 100 | 100 | 90 | 100 | 100 | 100 | 100 | 100 | 100 | very good herbicidal activity | 100 | 100 | 100 | 100 | 100 | 100 | 100 | 100 | Pre-emergence action against Veronica persica (VERPE) ([2]; dosage 320 g/ha): 100%; Pre-emergence action against Alopecurus myosuroides (ALOMY) ([4]; dosage 320 g/ha): 100%; Post-emergence action against Echinochloa crus-galli (ECHCG) ([22]; 320 g/ha): 100%; Post-emergence action against Echinochloa crus-galli (ECHCG) ([22]; 1280 g/ha): 100%; Pre-emergence action against Echinochloa crus-galli (ECHCG) [23]: 90%; Post-emergence action against Digitaria sanguinalis (DIGSA) ([13]; dosage 320 g/ha): 100%; Pre-emergence action against Lolium rigidum (LOLRI) ([24]; dosage 320 g/ha): 90%; Pre-emergence action against Lolium rigidum (LOLRI) ([24]; dosage 1280 g/ha): 100%; Post-emergence action against Setaria viridis (SETVI) [25]: 100%; Post-emergence action against Stellaria media (STEME) ([17]; dosage 1280 g/ha): 90%; herbicidal activity against the harmful plants of Tables C1-C12 in pre-emergence treatment [18]: very good herbicidal activity; Pre-emergence action against Digitaria sanguinalis (DIGSA) ([19]; dosage 1280 g/ha): 100%; Pre-emergence action against Poa annua (POAAN) ([20]; dosage 320 g/ha): 100%; Pre-emergence action against Poa annua (POAAN) ([20]; dosage 1280 g/ha): 100%; Pre-emergence action against Setaria viridis (SETVI) ([21]; dosage 320 g/ha): 100%; Pre-emergence action against Setaria viridis (SETVI) ([21]; dosage 1280 g/ha): 100%
